T1: Ileal sodium/bile acid cotransporter (Rattus norvegicus, UniProt Q62633)
T1 sequence (Q62633 whole entry): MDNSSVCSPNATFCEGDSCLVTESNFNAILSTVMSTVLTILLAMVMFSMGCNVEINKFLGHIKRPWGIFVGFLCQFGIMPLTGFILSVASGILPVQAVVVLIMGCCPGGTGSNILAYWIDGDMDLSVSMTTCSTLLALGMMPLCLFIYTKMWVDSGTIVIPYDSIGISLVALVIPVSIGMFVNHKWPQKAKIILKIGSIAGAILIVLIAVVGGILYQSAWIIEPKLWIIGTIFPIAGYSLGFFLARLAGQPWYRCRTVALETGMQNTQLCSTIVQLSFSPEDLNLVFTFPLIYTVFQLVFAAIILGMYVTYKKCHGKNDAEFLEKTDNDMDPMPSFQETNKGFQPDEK

T2: Solute carrier organic anion transporter family member 1A5 (Rattus norvegicus, UniProt O88397)
T2 sequence (O88397 whole entry): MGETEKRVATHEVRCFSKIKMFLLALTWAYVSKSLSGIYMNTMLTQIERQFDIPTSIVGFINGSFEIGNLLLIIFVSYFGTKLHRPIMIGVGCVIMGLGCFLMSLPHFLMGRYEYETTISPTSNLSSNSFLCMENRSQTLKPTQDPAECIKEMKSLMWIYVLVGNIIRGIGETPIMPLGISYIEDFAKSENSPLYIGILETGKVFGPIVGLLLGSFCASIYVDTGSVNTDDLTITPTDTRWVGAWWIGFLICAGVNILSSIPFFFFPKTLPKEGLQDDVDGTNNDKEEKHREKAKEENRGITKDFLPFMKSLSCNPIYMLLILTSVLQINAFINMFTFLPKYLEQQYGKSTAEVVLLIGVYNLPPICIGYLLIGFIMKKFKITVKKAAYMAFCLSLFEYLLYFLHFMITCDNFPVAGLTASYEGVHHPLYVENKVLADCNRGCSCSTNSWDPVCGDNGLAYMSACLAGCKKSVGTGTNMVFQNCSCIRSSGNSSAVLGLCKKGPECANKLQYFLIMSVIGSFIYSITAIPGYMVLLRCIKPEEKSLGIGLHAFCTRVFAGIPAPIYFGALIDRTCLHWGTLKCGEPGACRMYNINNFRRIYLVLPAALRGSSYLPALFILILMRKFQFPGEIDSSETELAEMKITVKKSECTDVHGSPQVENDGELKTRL

B1: Solute carrier organic anion transporter family member 1A5 (Rattus norvegicus) (protein)
chain: T2 sequence (O88397 whole entry)

Assays:
Type in all cases: functional, cell-based
[1] = biological target: T1, Ileal sodium/bile acid cotransporter; assay: TP_TRANSPORTER: uptake in ASBT-expressing COS cells; details: monkey
[2] = biological target: T2, Solute carrier organic anion transporter family member 1A5; assay: TP_TRANSPORTER: uptake in Oatp3-expressing COS cells; details: monkey
[3] = biological target: T2, Solute carrier organic anion transporter family member 1A5; assay: TP_TRANSPORTER: inhibition of Taurocholate uptake (Taurocholate: 10 uM, DIDS: 1000 uM) in Oatp3-expressing MDCK cells; details: dog
[4] = substrate: C[C@H](CCC(=O)NCC(=O)O)[C@H]1CC[C@H]2[C@@H]3CC[C@@H]4C[C@H](O)CC[C@]4(C)[C@H]3C[C@H](O)[C@]12C; assay: (§1) TP_TRANSPORTER: uptake in Oatp3-expressing MDCK cells
[5] = substrate: C[C@H](CCC(=O)NCC(=O)O)[C@H]1CC[C@H]2[C@@H]3[C@@H](O)C[C@@H]4C[C@H](O)CC[C@]4(C)[C@H]3CC[C@]12C; assay: as §1
[6] = substrate: C[C@H](CCC(=O)NCC(=O)O)[C@H]1CC[C@H]2[C@@H]3[C@H](O)C[C@@H]4C[C@H](O)CC[C@]4(C)[C@H]3CC[C@]12C; assay: as §1
[7] = substrate: C[C@H](CCC(=O)NCC(=O)O)[C@H]1CC[C@H]2[C@@H]3[C@H](O)C[C@@H]4C[C@H](O)CC[C@]4(C)[C@H]3C[C@H](O)[C@]12C; assay: as §1
[8] = substrate: C[C@H](CCC(=O)NCCS(=O)(=O)O)[C@H]1CC[C@H]2[C@@H]3CC[C@@H]4C[C@H](O)CC[C@]4(C)[C@H]3C[C@H](O)[C@]12C; assay: as §1
[9] = substrate: C[C@H](CCC(=O)NCCS(=O)(=O)O)[C@H]1CC[C@H]2[C@@H]3[C@@H](O)C[C@@H]4C[C@H](O)CC[C@]4(C)[C@H]3CC[C@]12C; assay: as §1
[10] = substrate: C[C@H](CCC(=O)NCCS(=O)(=O)O)[C@H]1CC[C@H]2[C@@H]3[C@H](O)C[C@@H]4C[C@H](O)CC[C@]4(C)[C@H]3CC[C@]12C; assay: as §1

Molecule | Activity [1] | Activity [2] | further results
C[C@H](CCC(=O)NCCS(=O)(=O)O)[C@H]1CC[C@H]2[C@@H]3[C@H](O)C[C@@H]4C[C@H](O)CC[C@]4(C)[C@H]3CC[C@]12C [TAUROCHENODEOXYCHOLATE] | substrate [+] | substrate [+] | 
C[C@H](CCC(=O)NCC(=O)O)[C@H]1CC[C@H]2[C@@H]3[C@H](O)C[C@@H]4C[C@H](O)CC[C@]4(C)[C@H]3CC[C@]12C [GLYCOCHENODEOXYCHOLATE] | substrate [+] | substrate [+] | 
C[C@H](CCC(=O)NCC(=O)O)[C@H]1CC[C@H]2[C@@H]3[C@@H](O)C[C@@H]4C[C@H](O)CC[C@]4(C)[C@H]3CC[C@]12C [GLYCOURSODEOXYCHOLIC ACID] | substrate [+] | substrate [+] | 
C[C@H](CCC(=O)NCCS(=O)(=O)O)[C@H]1CC[C@H]2[C@@H]3[C@@H](O)C[C@@H]4C[C@H](O)CC[C@]4(C)[C@H]3CC[C@]12C [TAURURSODIOL] | substrate [+] | substrate [+] | 
C[C@H](CCC(=O)NCCS(=O)(=O)O)[C@H]1CC[C@H]2[C@@H]3CC[C@@H]4C[C@H](O)CC[C@]4(C)[C@H]3C[C@H](O)[C@]12C [TAURODEOXYCHOLIC ACID] | substrate [+] | substrate [+] | 
C[C@H](CCC(=O)NCC(=O)O)[C@H]1CC[C@H]2[C@@H]3CC[C@@H]4C[C@H](O)CC[C@]4(C)[C@H]3C[C@H](O)[C@]12C [GLYCODEOXYCHOLATE] | substrate [+] | substrate [+] | 
O=S(=O)(O)c1cc(N=C=S)ccc1/C=C/c1ccc(NC=S)cc1S(=O)(=O)O |  |  | Activity [3]: inhibitor [(at a rough estimate) 15 % of control]
C[C@H](CCC(=O)NCC(=O)O)[C@H]1CC[C@H]2[C@@H]3[C@H](O)C[C@@H]4C[C@H](O)CC[C@]4(C)[C@H]3C[C@H](O)[C@]12C [GLYCOCHOLIC ACID] | substrate [+] | substrate [+] | 
B1 |  |  | Km [4]: 4.3 µM; Km [5]: 5.3 µM; Km [6]: 5.6 µM; Km [7]: 15.4 µM; Km [8]: 5.8 µM; Km [9]: 6.6 µM; Km [10]: 7 µM

From ChEMBL document CHEMBL2074318, “Expression, transport properties, and chromosomal location of organic anion transporter subtype 3” (Am J Physiol Gastrointest Liver Physiol, 2000)
